Experimental data as given in US5585376A, “1,5-benzodiazepine derivatives having CCK and/or gastrin antagonistic activity” (Glaxo Wellcome Inc., priority 1993, dated 1996).

Tested on: not listed separately
Assay: untoward effects in the gastrin fistula rat
Assay type: in vivo
Settings: 0.3 and 1 mg/kg iv
Excerpt: (§1) The compounds of the invention are essential non-toxic a theraapeutically active doses.

SMILES	untoward effects
O=C(Nc1ccc(F)cc1)NC1C(=O)N(CC(=O)N2CCCC2)c2ccccc2N(C2CCCCC2)C1=O (single isomer, unassigned) [Example 1 (isomer 1), 1-[1-Cyclohexyl-2,4-dioxo-5-(2-oxo-2-pyrrolidin-1-yl-ethyl)-2,3,4,5-tetrahydro-1H-benzo[b][1.4]diazepin-3-yl]-3-(4-fluoro-phenyl)urea]	no untoward effects were observed

Tested on: gastric acid secretion
Assay: gastric acid secretion in the gastrin fistula rat
Assay type: in vivo
Settings: 0.3 and 1 mg/kg iv
Excerpt: as §1

SMILES	gastric acid secretion
O=C(Nc1ccc(F)cc1)NC1C(=O)N(CC(=O)N2CCCC2)c2ccccc2N(C2CCCCC2)C1=O (single isomer, unassigned) [Example 1 (isomer 1), 1-[1-Cyclohexyl-2,4-dioxo-5-(2-oxo-2-pyrrolidin-1-yl-ethyl)-2,3,4,5-tetrahydro-1H-benzo[b][1.4]diazepin-3-yl]-3-(4-fluoro-phenyl)urea]	significally inhibited

Molecular target: T1, human CCK-B receptor (Homo sapiens, UniProt P32239)
T1 construct: expressed in transfected cells; host or cells: HeLa cells (membranes), stably transfected
T1 sequence (P32239 1-447): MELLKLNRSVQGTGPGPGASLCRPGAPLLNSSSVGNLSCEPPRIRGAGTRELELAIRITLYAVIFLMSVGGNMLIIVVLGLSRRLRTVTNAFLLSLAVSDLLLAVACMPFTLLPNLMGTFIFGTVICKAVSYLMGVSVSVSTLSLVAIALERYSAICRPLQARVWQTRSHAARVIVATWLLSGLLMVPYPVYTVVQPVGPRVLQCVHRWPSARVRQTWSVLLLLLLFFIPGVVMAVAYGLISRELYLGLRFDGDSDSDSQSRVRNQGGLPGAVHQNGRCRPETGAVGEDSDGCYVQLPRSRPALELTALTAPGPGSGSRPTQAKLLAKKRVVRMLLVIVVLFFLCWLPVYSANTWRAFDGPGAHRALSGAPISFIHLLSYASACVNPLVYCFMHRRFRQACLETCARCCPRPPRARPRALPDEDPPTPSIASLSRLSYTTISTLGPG
Assay: CCK-B receptor binding, transfected HeLa cell membranes, [125I]BH-sCCK-8
Settings: HeLa cell membranes stably transfected with human CCK-B receptor; 30 pM [125I]BH-sCCK-8
Method: Alternatively the binding affinity of compounds of the invention for CCK-A and CCK-B receptors may be determined using HeLa cell membranes that are transfected with the human CCK-B receptor or, COS-M6 cell membranes that are transiently transfected with the human CCK-A receptor.
CCK-B receptor binding studies were carried out using HeLa cell membranes which had been stabily transfected with the human CCK-B receptor cloned from temporal cortex cDNA library.
The transfected HeLa cell membranes were incubated with 30 pM [^125 ]BH-sCCK-8 in the presence of various concentrations of the test compound (1 pM to 1 μM). All experiments were performed in an assay volume of 250 μl. Membranes were harvested onto GF/C glass fibre filter paper (Whatman, UK) by rapid filtration using a Cell Harvester (Brandel model M-24R) and washed three times with HEPES Wash buffer chilled to 4° C. The radioactivity trapped on individual filter discs was counted over 60 seconds using a gamma counter (Mini Gamma counter, LKB, Wallac, Finland) at a counting efficiency of 77%. A control experiment was also carded out in the absence of a test compound.
Analysis of the data was performed by computer-assisted non-linear regression (ALLFIT programmes DeLean et al., 1978;). IC50 values for the test compounds were convened to Ki values using the Cheng & Prussof equation (Ki =IC50 /(1+[L]/KD)) (Cheng and Prussof, 1973).

SMILES	Ki [nM]
O=C(O)Cc1cccc(NC(=O)NC2C(=O)N(CC(=O)N3CCCC3)c3ccccc3N(c3ccccc3F)C2=O)c1 (stereo not drawn) [Example 3, (3-{3-[1-(2-Fluoro-phenyl)-2,4-dioxo-5-(2-oxo-2-pyrrolidin-1-yl-ethyl)-2,3,4,5-tetrahydro-1H-benzo[b][1,4]diazepin-3-yl]-ureido}-phenyl)-acetic acid]	3.98
O=C(Nc1ccc(F)cc1)NC1C(=O)N(CC(=O)N2CCCC2)c2ccccc2N(C2CCCCC2)C1=O (stereo not drawn) [Example 1, 1-[1-Cyclohexyl-2,4-dioxo-5-(2-oxo-2-pyrrolidin-1-yl-ethyl)-2,3,4,5-tetrahydro-1H-benzo[b][1.4]diazepin-3-yl]-3-(4-fluoro-phenyl)urea]	3.16
O=C(Nc1ccc(F)cc1)NC1C(=O)N(CC(=O)N2CCCC2)c2ccccc2N(C2CCCCC2)C1=O (single isomer, unassigned) [Example 1 (isomer 1), 1-[1-Cyclohexyl-2,4-dioxo-5-(2-oxo-2-pyrrolidin-1-yl-ethyl)-2,3,4,5-tetrahydro-1H-benzo[b][1.4]diazepin-3-yl]-3-(4-fluoro-phenyl)urea]	3.16
CC1(C)CCCN(C(=O)CN2C(=O)C(NC(=O)Nc3ccc(F)cc3)C(=O)N(c3ccccc3F)c3ccccc32)C1 (stereo not drawn) [Example 20]	2
O=C(Nc1ccccc1)NC1C(=O)N(CC(=O)N2CCCC2)c2ccccc2N(C2CCCCC2)C1=O (stereo not drawn) [Example 10]	3.98
O=C(Nc1cccc(-c2nn[nH]n2)c1)NC1C(=O)N(CC(=O)N2CCCC2)c2ccccc2N(c2ccccc2)C1=O (stereo not drawn) [Example 14]	3.16
Cc1cccc(NC(=O)NC2C(=O)N(CC(=O)N3CCCC3)c3ccccc3N(c3ccccc3)C2=O)c1 (stereo not drawn) [Example 15]	1.58
O=C(Nc1ccc(F)cc1)NC1C(=O)N(CC(=O)N2CCCC2)c2ccccc2N(C2CCCCC2)C1=O (single isomer, unassigned) [1 (isomer 2), 1-[1-Cyclohexyl-2,4-dioxo-5-(2-oxo-2-pyrrolidin-1-yl-ethyl)-2,3,4,5-tetrahydro-1H-benzo[b][1.4]diazepin-3-yl]-3-(4-fluoro-phenyl)urea]	7.94
O=C(Nc1cccc(F)c1)NC1C(=O)N(CC(=O)N2CCCC2)c2ccccc2N(C2CCCCC2)C1=O (stereo not drawn) [Example 7]	5.01
CC1(C)CCCN(C(=O)CN2C(=O)C(NC(=O)Nc3cccc(C(=O)O)c3)C(=O)N(c3ccccc3F)c3ccccc32)C1 (stereo not drawn) [Example 4, 3-{3-[1-[2-(3,3-Dimethyl-piperidin-1-yl)-2-oxo-ethyl]-5-(2-fluoro-phenyl)-2,4-dioxo-2,3,4,5-tetrahydro-1H-benzo[b][1,4]diazepin-3-yl]-ureido}-benzoic acid]	1.58
O=C(Nc1cccc([N+](=O)[O-])c1)NC1C(=O)N(CC(=O)N2CCCC2)c2ccccc2N(C2CCCCC2)C1=O (stereo not drawn) [Example 8]	2.51
CN(C)c1cccc(NC(=O)NC2C(=O)N(CC(=O)N3CCCC3)c3ccccc3N(C3CCCCC3)C2=O)c1 (stereo not drawn) [Example 12]	1
O=C(Nc1cccc(C(=O)O)c1)NC1C(=O)N(CC(=O)N2CCCC2)c2ccccc2N(C2CCCCC2)C1=O (stereo not drawn) [Example 2, 3-{3-[1-Cyclohexyl-2,4-dioxo-5-(2-oxo-2-pyrrolidin-1-yl-ethyl)-2,3,4,5-tetrahydro-1H-benzo[b][1.4]diazepin-3-yl]-ureido}-benzoic acid]	2
